From patent US20030013099A1, “Genes regulated by DNA methylation in colon tumors” (priority 2001, published 2003)

Test system: HMEC cells
Assay: microarray differential expression, HMEC cells treated with Aza
Format: cell-based, human
Conditions: vs untreated, log base 2, negative = upregulation
Description: HT29 cells were derived from a Grade II adenocarcinoma of the colon obtained from a person. HCT116 cells are a subpopulation of malignant cells isolated from a primary cell culture of a single human colonic carcinoma (Brattain et al. (1981) Cancer Res 41:1751-6). HMEC cells are a primary human epithelial cell line derived from the breast tissue of a normal donor. […] Treated cells were exposed to 500 nM 5-aza-2-deoxycytidine (Aza; Sigma-Aldrich) 24 hours after passage in complete culture medium. Control cultures were treated in parallel with phosphate buffered saline vehicle. After twenty-four hours, culture medium was replaced with drug-free medium. Control and Aza-treated cells were subcultured at equal densities at 1 and 5 days after the initial treatment, and proliferation was measured at the subsequent time point using a Coulter counter (Beckman Coulter, Fullerton Calif.). […]
Cells were harvested and lysed in 1 ml of TRIZOL reagent (5×10^6 cells/ml; Invitrogen). The lysates were vortexed thoroughly and incubated at room temperature for 2-3 minutes and extracted with 0.5 ml chloroform. The extract was mixed, incubated at room temperature for 5 minutes, and centrifuged at 16,000× g for 15 minutes at 4° C. The aqueous layer was collected, and an equal volume of isopropanol was added. Samples were mixed, incubated at room temperature for 10 minutes, and centrifuged at 16,000× g for 20 minutes at 4° C. The supernatant was removed, and the RNA pellet was washed with 1 ml of 70% ethanol, centrifuged at 16,000× g at 4° C., and resuspended in RNAse-free water. The concentration of the RNA was determined by measuring the optical density at 260 nm.
Poly(A) RNA was prepared using an OLIGOTEX mRNA kit (Qiagen) with the following modifications: OLIGOTEX beads were washed in tubes instead of on spin columns, resuspended in elution buffer, and then loaded onto spin columns to recover mRNA. To obtain maximum yield, the mRNA was eluted twice.
Each poly(A) RNA sample was reverse transcribed using MMLV reverse-transcriptase, 0.05 pg/μl oligo-d(T) primer (21mer), 1× first strand buffer, 0.03 units/ul RNAse inhibitor, 500 uM dAT?, 500 uM dGTP, 500 uM dTTP, 40 uM dCTP, and 40 uM either dCTP-Cy3 or dCTP-Cy5 (APB). The reverse transcription reaction was performed in a […] volume containing 200 ng poly(A) RNA using the GEMBRIGHT kit (Incyte Genomics). Specific control poly(A) RNAs (YCFRO6, YCFR45, YCFR67, YCFR85, YCFR43, YCFR22, YCFR23, YCFR25, YCFR44, YCFR26) were synthesized by in vitro transcription from non-coding yeast genomic DNA (W. Lei, unpublished). As quantitative controls, control mRNAs (YCFRO6, YCFR45, YCFR67, and YCFR85) at 0.002 ng, 0.02 ng, 0.2 ng, and 2 ng were diluted into reverse transcription reaction at ratios of 1:100,000, 1:10,000, 1:1000, 1:100 (w/w) to sample mRNA, respectively. To sample differential expression patterns, control mRNAs (YCFR43, YCFR22, YCFR23, YCFR25, YCFR44, YCFR26) were diluted into reverse transcription reaction at ratios of 1:3, 3:1, 1:10, 10:1, 1:25, 25:1 (w/w) to sample mRNA. Reactions were incubated at 37° C. for 2 hours, treated with […] of 0.5M sodium hydroxide, and incubated for 20 minutes at 85° C. to the stop the reaction and degrade the RNA.
cDNAs were purified using two successive CHROMA SPIN 30 gel filtration spin columns (Clontech). Cy3- and Cy5-labeled reaction samples were combined as described below and ethanol precipitated using […] of 100% ethanol. The cDNAs were then dried to completion using a SpeedVAC system (Savant Instruments, Holbrook N.Y.) and resuspended in 14 μl 5× SSC, 0.2% SDS.
Hybridization reactions contained 9 μl of sample mixture containing 0.2 μg each of Cy3 and CyS labeled cDNA synthesis products in 5× SSC, 0.2% SDS hybridization buffer. The mixture was heated to 65° C. for 5 minutes and was aliquoted onto the microarray surface and covered with an 1.8 cm^2 coverslip. […]

[1] = SEQ ID NO:33 cDNA clone YU62C03
[2] = SEQ ID NO:37, 38 MAGE-4b antigen
[3] = SEQ ID NO:49 phospholipid scramblase 1
[4] = SEQ ID NO:50 retinoid inducible gene 1
[5] = SEQ ID NO:51 interferon induced
[6] = SEQ ID NO:56 hepatitis C-associated microtubular aggregate
[7] = SEQ ID NO:58 Similar to keratin 7

Nc1ncn([C@H]2C[C@H](O)[C@@H](CO)O2)c(=O)n1 [Aza, 5-aza-2-deoxycytidine]
differential expression, Clone ID 4764233, HMEC t/Aza (9d) (SEQ ID NO:30 GAGE-8): 0.00
differential expression, Clone ID 2511379, HMEC t/Aza (4d) (SEQ ID NO:31 GAGE-7B): 0.32
differential expression, Clone ID 2511379, HMEC t/Aza (9d) (SEQ ID NO:31 GAGE-7B): 0.32
differential expression, Clone ID 2471817, HMEC t/Aza (4d) [1]: 0.07
differential expression, Clone ID 2471817, HMEC t/Aza (9d) [1]: 0.00
differential expression, Clone ID 3333736, HMEC t/Aza (4d) (SEQ ID NO:34 MAGE-11 antigen): 0.06
differential expression, Clone ID 3333736, HMEC t/Aza (9d) (SEQ ID NO:34 MAGE-11 antigen): 0.00
differential expression, Clone ID 1304365, HMEC t/Aza (4d) (SEQ ID NO:35 GAGE-8): 0.00
differential expression, Clone ID 1304365, HMEC t/Aza (9d) (SEQ ID NO:35 GAGE-8): 0.00
differential expression, Clone ID 2657056, HMEC t/Aza (4d) [2]: 0.13
differential expression, Clone ID 2657056, HMEC t/Aza (9d) [2]: 0.00
differential expression, Clone ID 2507719, HMEC t/Aza (4d) (SEQ ID NO:39 MAGE-9 antigen): −0.48
differential expression, Clone ID 2507719, HMEC t/Aza (9d) (SEQ ID NO:39 MAGE-9 antigen): −0.24
differential expression, Clone ID 4688, HMEC t/Aza (4d) (SEQ ID NO:41 MAGE-1): −0.13
differential expression, Clone ID 4688, HMEC t/Aza (9d) (SEQ ID NO:41 MAGE-1): −0.13
differential expression, Clone ID 2068708, HMEC t/Aza (4d) (SEQ ID NO:42 HM74): −0.50
differential expression, Clone ID 2068708, HMEC t/Aza (9d) (SEQ ID NO:42 HM74): −0.24
differential expression, Clone ID 23770, HMEC t/Aza (4d) (SEQ ID NO:43 1-8D): −0.48
differential expression, Clone ID 23770, HMEC t/Aza (9d) (SEQ ID NO:43 1-8D): −0.63
differential expression, Clone ID 1616783, HMEC t/Aza (4d) (SEQ ID NO:45 Incyte Unique): −0.53
differential expression, Clone ID 1616783, HMEC t/Aza (9d) (SEQ ID NO:45 Incyte Unique): −0.20
differential expression, Clone ID 820942, HMEC t/Aza (4d) (SEQ ID NO:46 cDNA FLJ20120): −0.48
differential expression, Clone ID 820942, HMEC t/Aza (9d) (SEQ ID NO:46 cDNA FLJ20120): −0.20
differential expression, Clone ID 891322, HMEC t/Aza (4d) (SEQ ID NO:47 Incyte Unique): 0.00
differential expression, Clone ID 891322, HMEC t/Aza (9d) (SEQ ID NO:47 Incyte Unique): 0.00
differential expression, Clone ID 2755836, HMEC t/Aza (4d) (SEQ ID NO:48 U5 A RNA): −0.26
differential expression, Clone ID 2755836, HMEC t/Aza (9d) (SEQ ID NO:48 U5 A RNA): −0.31
differential expression, Clone ID 1227521, HMEC t/Aza (4d) [3]: −0.19
differential expression, Clone ID 1227521, HMEC t/Aza (9d) [3]: −0.63
differential expression, Clone ID 2200842, HMEC t/Aza (4d) [4]: 0.00
differential expression, Clone ID 2200842, HMEC t/Aza (9d) [4]: 0.00
differential expression, Clone ID 2238363, HMEC t/Aza (4d) [5]: −0.50
differential expression, Clone ID 2238363, HMEC t/Aza (9d) [5]: −0.29
differential expression, Clone ID 1495382, HMEC t/Aza (4d) (SEQ ID NO:53 TRAIL): −0.48
differential expression, Clone ID 1495382, HMEC t/Aza (9d) (SEQ ID NO:53 TRAIL): −0.19
differential expression, Clone ID 1998269, HMEC t/Aza (4d) (SEQ ID NO:55 rhoB): −0.29
differential expression, Clone ID 1998269, HMEC t/Aza (9d) (SEQ ID NO:55 rhoB): −0.68
differential expression, Clone ID 1919287, HMEC t/Aza (4d) [6]: 0.00
differential expression, Clone ID 1919287, HMEC t/Aza (9d) [6]: 0.00
differential expression, Clone ID 2637446, HMEC t/Aza (4d) (SEQ ID NO:57 HE4 protein): 0.00
differential expression, Clone ID 2637446, HMEC t/Aza (9d) (SEQ ID NO:57 HE4 protein): 0.00
differential expression, Clone ID 1962141, HMEC t/Aza (4d) [7]: 0.00
differential expression, Clone ID 1962141, HMEC t/Aza (9d) [7]: −0.07
differential expression, Clone ID 4933404, HMEC t/Aza (4d) (SEQ ID NO:60 Incyte Unique): 0.96
differential expression, Clone ID 4933404, HMEC t/Aza (9d) (SEQ ID NO:60 Incyte Unique): 0.48
differential expression, Clone ID 2150288, HMEC t/Aza (4d) (SEQ ID NO:61 Keratin 8): −0.67
differential expression, Clone ID 2150288, HMEC t/Aza (9d) (SEQ ID NO:61 Keratin 8): −0.42
differential expression, Clone ID 2697455, HMEC t/Aza (4d) (SEQ ID NO:61 Keratin 8): −0.63
differential expression, Clone ID 2697455, HMEC t/Aza (9d) (SEQ ID NO:61 Keratin 8): −0.37
